The results in this text go back to EPA's ToxValDB 9.5 (doi:10.2903/j.efsa.2005.15r).

Each structure is given as a SMILES string. ≈ marks a conversion by molar mass, not a printed value.

Data set [1] has as its system Anas platyrhynchos.
The subject of data set [2] is Aphidius rhopalosiphi. Particulars: not reported; mortality.
Data set [3] has as its system Apis mellifera. Particulars: acute, duration: 48 hours, mortality.
Data set [4] relates to Bird. Particulars: acute; oral; unspecified; mortality.
Data set [5] has as its system Daphnia magna.
For data set [6], the system named is Oncorhynchus mykiss.
The test system of data set [7] is Oryctolagus sp. Particulars: reproduction developmental; mortality.
The test system of data set [8] is Rattus norvegicus.
The subject of data set [9] is Typhlodromus pyri. Particulars: not reported; mortality.
Where [10] appears, read: chronic/long-term, duration: 21 days.

Turning to `COC(=O)c1ccccc1S(=O)(=O)NC(=O)N(C)c1nc(C)nc(OC)n1` [Tribenuron-methyl], the NOAEL (commonly the highest dose or exposure tested at which no adverse effect was seen) was 21 mg/kg-day in data set [1] (reproductive); 20 mg/kg-day in data set [7]; 1 mg/kg-day in [8] (chronic, duration: 2 years, body weight); 19 mg/kg-day in data set [8] (reproduction developmental, reproduction); 7 mg/kg-day in data set [8] (subchronic, duration: 90 days, oral, body weight). Moreover, the LC50 in data set [1] (short-term, oral, feed, mortality) was > 974 mg/kg-day; in [5] (acute, duration: 48 hours, mortality), > 894 µg/mL; in data set [6] (acute, duration: 96 hours, mortality), 738 µg/mL (≈ 1870 µM). Besides, the LEL in [2] and in [9] was 30 g/ha each time. In addition, the LD50 was > 98.4 µg/piece in [3] (dermal); > 9.1 µg/piece in [3] (oral, unspecified); > 2250 mg/kg in data set [4]; > 5000 mg/kg in data set [8] (acute, oral, mortality). Further, the NOEC in data set [5] (setting [10]) is 120 mg/L; in data set [6] (setting [10]), 560 mg/L.
